Results as given in patent US9193697B2, “Oxazole derivatives useful as modulators of FAAH” (MERCK SHARP & DOHME CORP., priority 2010, dated 2015).

How the values were obtained:
[1] = target: T1, human FAAH (Fatty Acid Amide Hydrolase) (Homo sapiens (Human), UniProt O00519); test: FAAH inhibition, human FAAH CHO cell lysate (AAMCA fluorescence); format: biochemical
Text: (§1) To assist in assay development stable cell lines for human, murine and rat full length FAAH were developed. […] The full length FAAH was subcloned into the mammalian expression vector, pcDEF.neo, using XbaI and EcoRI restriction sites and used for stable cell line generation.
(§2) The full length murine FAAH was subcloned into the mammalian expression vector, pcDEFneo using either EcoRI (murine) or KpnI and EcoRI (rat) restriction sites. Chinese hamster ovary cells (CHO) were transfected following manufacturers protocol (AMAXA). Forty eight hours post transfection, cells were trypsinized and transferred to 96 well plates in Iscove's DMEM media supplemented with 2 mM Glutamine, 10% fetal calf serum, 1 mg/ml geneticin and HT Supplement (0.1 mM sodium hypoxanthine, 0.016 mM thymidine) in order to isolate single clones. […] Following removal of tissue culture media cells were dislodged following addition of Cellstripper (Mediatech, Inc. Manassas, Va.) and transferred to 96 well black clear bottom assay plate, centrifuged at 1,000 rpm for 3 mins and media removed and replaced with assay buffer (50 mM Tris pH8.0, 1 mM EDTA, 0.1% fatty acid free BSA). The reaction was initiated by addition of fluorescent substrate, AMC Arachidonoyl Amide (Cayman Chemical, Ann Arbor, Mich.) to 1 μM and reaction allowed to proceed for 2 hours at room temperature. Release of fluorescence was monitored in a CytoFluor Multiplate Reader.
CHO cells expressing FAAH were used to prepare either crude cell lysate or microsome fractions. To harvest cells, tissue culture media was decanted, the monolayer washed three times with Ca^++Mg^++ free PBS and cells recovered after 15 min in enzyme free dissociation media (Millipore Corp, Billerica, Mass.). Cells were collected by centrifuging at 2000 rpm for 15 min, and the cell pellet re-suspended with 50 mM HEPES (pH 7.4) containing 1 mM EDTA and the protease inhibitors aprotinin (1 mg/ml) and leupeptin (100 μM). The suspension was sonicated at 4° C. and the cell lysate recovered after centrifuging at 12,000×g (14,600 rpm, SS34 rotor) for 20 min at 4° C. to form a crude pellet of cell debris, nuclei, peroxisomes, lysosomes, and mitochondria; the supernatant or cell lysate was used for FAAH enzyme assay. In some eases, microsomes fractions enriched in FAAH were prepared by centrifuging the cell lysate further at 27,000 rpm (100,000×g) in SW28 rotor for 50 minutes at 4° C. The pellet containing FAAH-enriched microsomes was re-suspend in 50 mM HEPES, (pH 7.4) 1 mM EDTA, and any remaining DNA sheared by passage of material through a 23 gauge needle and aliquots of enzyme were store at −80° C. prior to use.
(§3) Assays are performed on either cell lysate or microsome fractions prepared as described or in whole cell format employing either the fluorescent substrate AAMCA (Cayman chemical, Ann Arbor, Mich.,) or ^3H-anandamide ([ETHANOLAMINE-1-3H] American Radiolabeled Chemicals; 1 mCi/ml). […] AAMCA substrate was used to achieve a final concentration of 1 μM and reaction allowed to proceed at room temperature for 1-3 hours. […] Whole cell assay is conducted with cells harvested after rinsing tissue culture flasks three times with Ca^++Mg^++ free PBS, incubating for 10 min in Enzyme free dissociation media and centrifuging for 5 minutes at 1,000 rpm in table top centrifuge. Cells are resuspended in assay buffer at desired cell number in (4×10^4 cells/assay in 96-well format; 1×10^4 cells/assay in 384-well format) and assayed as described.
Alternatively, assays are performed using anandamide [ethanolamine 1-^3H] (specific activity of 10 Ci/mmol) diluted with cold anandamide to achieve a final assay concentration of 1 μM anandamide (˜50,000 cpm). Enzyme (CHO cell lysate, brain or liver homogenate) is incubated in assay buffer (50 mM Phosphate, pH 8.0, 1 mM EDTA, 200 mM KCl, 0.2% glycerol, 0.1% fatty acid free BSA) with inhibitor at 25° C. for 30 minutes.

[2] = target: T1, human FAAH (Fatty Acid Amide Hydrolase); test: FAAH inhibition, human FAAH CHO whole cell format; format: cell-based
Text: as §1, §2, §3

T1 sequence (O00519 whole entry): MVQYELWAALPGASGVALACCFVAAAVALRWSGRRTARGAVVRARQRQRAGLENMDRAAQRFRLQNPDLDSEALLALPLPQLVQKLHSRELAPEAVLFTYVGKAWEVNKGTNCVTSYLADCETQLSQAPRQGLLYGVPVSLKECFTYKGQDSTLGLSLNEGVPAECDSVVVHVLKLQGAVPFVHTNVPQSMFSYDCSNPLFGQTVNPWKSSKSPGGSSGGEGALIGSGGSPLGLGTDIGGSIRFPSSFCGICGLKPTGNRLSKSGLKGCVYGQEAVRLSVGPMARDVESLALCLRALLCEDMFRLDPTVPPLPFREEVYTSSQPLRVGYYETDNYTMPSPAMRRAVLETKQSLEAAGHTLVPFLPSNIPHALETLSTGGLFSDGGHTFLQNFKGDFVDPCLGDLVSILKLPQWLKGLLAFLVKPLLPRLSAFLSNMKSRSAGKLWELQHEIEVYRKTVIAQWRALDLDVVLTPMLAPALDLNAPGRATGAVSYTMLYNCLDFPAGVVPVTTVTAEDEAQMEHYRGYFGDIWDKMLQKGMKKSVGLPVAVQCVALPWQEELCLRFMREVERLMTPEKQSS

Row | SMILES | IC50 [1] [nM] | IC50 [2] [nM]
1 | C[S+]([O-])c1ccc(-c2nc(C3CCN(S(C)(=O)=O)CC3)oc2Sc2ccc(Cl)cn2)cc1 (stereo not shown) [Example A7.19, 5-chloro-2-({4-[4-(methylsulfinyl)phenyl]-2-[1-(methylsulfonyl)piperidin-4-yl]-1,3-oxazol-5-yl}sulfanyl)pyridine] | 287 | 3280
2 | CN1CCC(c2nc(-c3ccc([S+](C)[O-])cc3)c(Sc3ccc(Cl)cn3)o2)CC1 (stereo not shown) [Example A7.20, 5-chloro-2-({2-(1-methylpiperidin-4-yl)-4-[4-(methylsulfinyl)phenyl]-1,3-oxazol-5-yl}sulfanyl)pyridine] | 1700 | ≥ 10000
3 | C[S+]([O-])c1ccc(-c2nc(C3CCN(C(=O)Oc4ccccc4)CC3)oc2Sc2ccc(Cl)cn2)cc1 (stereo not shown) [Example A7.21, phenyl 4-{5-[(5-chloropyridin-2-yl)sulfanyl]-4-[4-(methylsulfinyl)phenyl]-1,3-oxazol-2-yl}piperidine-1-carboxylate] | 25.9 | 124
4 | CC(C)OC(=O)N1CCC(c2nc(-c3ccc([S+](C)[O-])cc3)c(Sc3ccc(Cl)cn3)o2)CC1 (stereo not shown) [Example A7.22, propan-2-yl 4-{5-[(5-chloropyridin-2-yl)sulfanyl]-4-[4-(methylsulfinyl)phenyl]-1,3-oxazol-2-yl}piperidine-1-carboxylate] | 45.8 | 383
5 | CCOC(=O)N1CCC(c2nc(-c3ccc([S+](C)[O-])cc3)c(Sc3ccc(Cl)cn3)o2)CC1 (stereo not shown) [Example A7.23, ethyl 4-{5-[(5-chloropyridin-2-yl)sulfanyl]-4-[4-(methylsulfinyl)phenyl]-1,3-oxazol-2-yl}piperidine-1-carboxylate] | 61.7 | 436
6 | COCCOC(=O)N1CCC(c2nc(-c3ccc([S+](C)[O-])cc3)c(Sc3ccc(Cl)cn3)o2)CC1 (stereo not shown) [Example A7.24, 2-methoxyethyl 4-{5-[(5-chloropyridin-2-yl)sulfanyl]-4-[4-(methylsulfinyl)phenyl]-1,3-oxazol-2-yl}piperidine-1-carboxylate] | 200 | 1330
7 | COCCOCC(=O)N1CCC(c2nc(-c3ccc([S+](C)[O-])cc3)c(Sc3ccc(Cl)cn3)o2)CC1 (stereo not shown) [Example A7.25, 1-(4-{5-[(5-chloropyridin-2-yl)sulfanyl]-4-[4-(methylsulfinyl)phenyl]-1,3-oxazol-2-yl}piperidin-1-yl)-2-(2-methoxyethoxy)ethanone] | 525 | 4670
8 | COCCOCCOCC(=O)N1CCC(c2nc(-c3ccc([S+](C)[O-])cc3)c(Sc3ccc(Cl)cn3)o2)CC1 (stereo not shown) [Example A7.26] | 748 | 6550
9 | C[S+]([O-])c1ccc(-c2nc(C3CCN(C(=O)OCCN4CCOCC4)CC3)oc2Sc2ccc(Cl)cn2)cc1 (stereo not shown) [Example A7.27, 2-(morpholin-4-yl)ethyl 4-{5-[(5-chloropyridin-2-yl)sulfanyl]-4-[4-(methylsulfinyl)phenyl]-1,3-oxazol-2-yl}piperidine-1-carboxylate] | 482 | 5010
10 | CN(C)CCOC(=O)N1CCC(c2nc(-c3ccc([S+](C)[O-])cc3)c(Sc3ccc(Cl)cn3)o2)CC1 (stereo not shown) [Example A7.29, 2-(dimethylamino)ethyl 4-{5-[(5-chloropyridin-2-yl)sulfanyl]-4-[4-(methylsulfinyl)phenyl]-1,3-oxazol-2-yl}piperidine-1-carboxylate] | 1910 | ≥ 10000

Results, then the molecule that gave them:

Row | IC50 [1] [nM] | IC50 [2] [nM] | SMILES
11 | 2140 | ≥ 10000 | C[S+]([O-])c1ccc(-c2nc(C3CCN(C(=O)OCCNCCO)CC3)oc2Sc2ccc(Cl)cn2)cc1 (stereo not shown) [Example A7.30, 2-[(2-hydroxyethyl)amino]ethyl 4-{5-[(5-chloropyridin-2-yl)sulfanyl]-4-[4-(methylsulfinyl)phenyl]-1,3-oxazol-2-yl}piperidine-1-carboxylate]
12 | 10000 | ≥ 10000 | Clc1ccc(Sc2oc(C3CCOCC3)nc2C2CCNCC2)nc1 [Example A7.31, 5-chloro-2-{[4-(piperidin-4-yl)-2-(tetrahydro-2H-pyran-4-yl)-1,3-oxazol-5-yl]sulfanyl}pyridine]
13 | 17.9 | 45.1 | CC(C)(O)c1ccc(-c2nc(C3CCOCC3)oc2Sc2ccc(Cl)cc2)cn1 [Example B5.1, 2-(5-{5-[(4-chlorophenyl)sulfanyl]-2-(tetrahydro-2H-pyran-4-yl)-1,3-oxazol-4-yl}pyridin-2-yl)propan-2-ol]
14 | 4.19 | 10.9 | Clc1ccc(Sc2oc(C3CCOCC3)nc2-c2ccc3[nH]ncc3c2)cc1 [Example B5.2, 5-{5-[(4-chlorophenyl)sulfanyl]-2-(tetrahydro-2H-pyran-4-yl)-1,3-oxazol-4-yl}-1H-indazole]
15 | 12.8 | 38.5 | Clc1ccc(Sc2oc(C3CCOCC3)nc2-c2ccc(N3CCOCC3)nc2)cc1 [Example B5.3, 4-(5-{5-[(4-chlorophenyl)sulfanyl]-2-(tetrahydro-2H-pyran-4-yl)-1,3-oxazol-4-yl}pyridin-2-yl)morpholine]
16 | 27.6 | 63.8 | Clc1ccc(Sc2oc(C3CCOCC3)nc2-c2cnc3[nH]ccc3c2)cc1 [Example B5.4, 5-{5-[(4-chlorophenyl)sulfanyl]-2-(tetrahydro-2H-pyran-4-yl)-1,3-oxazol-4-yl}-1H-pyrrolo[2,3-b]pyridine]
17 | 255 | 1050 | Clc1ccc(Sc2oc(C3CCOCC3)nc2-c2cnn(CC3OCCO3)c2)cc1 [Example B5.5, 5-[(4-chlorophenyl)sulfanyl]-4-[1-(1,3-dioxolan-2-ylmethyl)-1H-pyrazol-4-yl]-2-(tetrahydro-2H-pyran-4-yl)-1,3-oxazole]
18 | 118 | 421 | Clc1ccc(Sc2oc(C3CCOCC3)nc2-c2ccc3ncnn3c2)cc1 [Example B5.6, 6-{5-[(4-chlorophenyl)sulfanyl]-2-(tetrahydro-2H-pyran-4-yl)-1,3-oxazol-4-yl}[1,2,4]triazolo[1,5-a]pyridine]
19 | 92.2 | 169 | Cn1nnc2ccc(-c3nc(C4CCOCC4)oc3Sc3ccc(Cl)cc3)cc21 [Example B5.7, 6-{5-[(4-chlorophenyl)sulfanyl]-2-(tetrahydro-2H-pyran-4-yl)-1,3-oxazol-4-yl}-1-methyl-1H-benzotriazole]
20 | 146 | 737 | Clc1ccc(Sc2oc(C3CCOCC3)nc2-c2cn[nH]c2)cc1 [Example B5.8, 5-[(4-chlorophenyl)sulfanyl]-4-(1H-pyrazol-4-yl)-2-(tetrahydro-2H-pyran-4-yl)-1,3-oxazole]
21 | 9.61 | 115 | Clc1ccc(Sc2oc(C3CCOCC3)nc2-c2ccc(N3CCNCC3)nc2)cc1 [Example B5.9, 1-(5-{5-[(4-chlorophenyl)sulfanyl]-2-(tetrahydro-2H-pyran-4-yl)-1,3-oxazol-4-yl}pyridin-2-yl)piperazine]
22 | 67.6 | 98.1 | Clc1ccc(Sc2oc(C3CCOCC3)nc2-c2cnc3[nH]ncc3c2)cc1 [Example B5.10, 5-{5-[(4-chlorophenyl)sulfanyl]-2-(tetrahydro-2H-pyran-4-yl)-1,3-oxazol-4-yl}-1H-pyrazolo[3,4-b]pyridine]
23 | 13.1 | 36.9 | CN(C)c1ncc(-c2nc(C3CCOCC3)oc2Sc2ccc(Cl)cc2)cn1 [Example B5.11, 5-{5-[(4-chlorophenyl)sulfanyl]-2-(tetrahydro-2H-pyran-4-yl)-1,3-oxazol-4-yl}-N,N-dimethylpyrimidin-2-amine]
